Assay results taken from PubChem BioAssay (NCI).
Where “and” joins values, the source holds several entries; their conditions need not be identical. Identical values can stand only once.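 The compound was tested at five concentrations on cells cultured in 96-well plates, with a 48-hour exposure period. Here, GI50 denotes the concentration required for 50% inhibition of growth. TGI is the concentration that stops growth completely.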

Assays:
Assay in all cases: NCI anticancer screen, dose series, 48 h
[1] = tested on: DLD-1 colon
[2] = tested on: DMS 273 small cell lung
[3] = tested on: KM20L2 colon
[4] = tested on: LXFL 529 NSCLC
[5] = tested on: SNB-78 CNS
[6] = tested on: XF 498 CNS
[7] = tested on: BT-549 breast
[8] = tested on: DU-145 prostate
[9] = tested on: HS 578T breast
[10] = tested on: PC-3 prostate

Structure (SMILES) | TGI [1] [µM] | TGI [2] [µM] | TGI [3] [µM] | TGI [4] [µM] | TGI [5] | TGI [6] [µM] | also measured
CCCCCCCCCCCOC(=S)NC(C)C | 49 | 34.4 | 30.2 | 85.4 | 78.5 µM | 30.9 | 
OCCOc1ccc(-c2cc(-c3ccccn3)nc(-c3ccccn3)c2)cc1 | > 100 |  | > 41.8 | > 100 | > 100 µM |  | TGI [7]: > 100 µM; TGI [8]: > 30.5 µM; TGI [9]: > 100 µM; TGI [10]: > 100 µM
Cc1ccc(C)c(NC(=O)C(=O)CC(=O)C2CCOC2=O)c1 (stereo not given) | > 100 | > 100 | > 100 | > 100 | > 100 µM | > 100 | 
O=C(NCCCCCCCCNC(=O)c1cnc2ccccc2n1)c1cnc2ccccc2n1 | > 100 | > 100 |  | > 100 | > 100 µM | > 100 | 
COc1ccc(/C(=N/NC(N)=O)C2(O)C(=O)Nc3ccc([N+](=O)[O-])cc32)cc1 (stereo not given) | 57 | 39.3 | 51.5 | 35.9 | 34.7 µM | 30.1 | 
COc1c2c(c3c(c1C1OC(C)[C@@H](C)O1)CC(C)(C)O3)C(=O)c1ccccc1C2=O (stereo not given in full) | > 100 | 69.7 | > 100 | > 100 | > 100 µM | > 100 | 
c1ccc(SC2(Sc3ccccc3)CCCC2)cc1 | > 100 | > 100 | > 100 |  | > 100 µM | > 100 | 
Cc1ccc(C(=O)O/N=C2/CCCC/C2=C\c2ccccc2)cc1 | > 100 | 76.9 | > 100 | 30.9 | 53.4 µM | > 100 | 
C1=C(c2ccccc2)CN(c2ccccc2)OC1 | > 100 | > 100 | > 100 | > 100 | > 100 µM | > 100 | 
C1OCC2S[C@@H]3COCO[C@@H]3C2O1 (stereo not given in full) | > 100 | > 100 | > 100 | > 100 | > 100 µM | > 100 | 
O=C(O)c1ccccc1Cc1ccco1 | > 100 | > 100 | > 100 | > 100 | > 100 µM |  | 
CCC[CH2][Sn]([CH2]CCC)([O]C(=O)c1c(F)cccc1F)[O]C(=O)c1c(F)cccc1F | 1.91 | 2.27 | 2.98 | 0.318 | 1.47 µM | 2.59 | GI50 [1]: 0.624 µM; GI50 [2]: 1.07 µM; GI50 [3]: 1.61 µM; GI50 [4]: 0.139 µM; GI50 [5]: 0.333 µM; GI50 [6]: 1.31 µM
NNC(=S)N/N=C(\CCCC(=O)NCCc1ccccc1)CC(=O)c1ccccc1 | > 100 |  | > 100 | > 100 | > 100 µM |  | 
CC1=NN(C(=O)c2ccccc2O)C(=O)/C1=C/c1ccc([N+](=O)[O-])cc1 | > 100 |  | > 100 | > 100 | > 100 µM | > 100 | GI50 [7]: 0.127 µM; TGI [7]: > 100 µM; GI50 [8]: 0.327 µM; TGI [8]: > 100 µM; TGI [9]: > 100 µM; GI50 [10]: 0.371 µM; TGI [10]: > 100 µM
CC[P+](C)(Cc1ccccc1)c1ccccc1 (stereo not given) | > 100 | > 100 | > 100 | > 100 | > 100 µM | > 100 | 
COc1ccc(S(=O)(=O)NC(C)C(=O)O)cc1 (stereo not given) | > 100 | > 100 | > 100 | > 100 |  | 63.4 | 
COc1ccc(/C=C2\CN(C)Cc3c2nc(N)nc3-c2ccc(OC)cc2)cc1 | > 100 | > 100 | > 100 | > 100 | > 100 µM | > 100 | 
C#CCC[C@@H]1O[C@@]1(C)CC/C=C(\C)CC/C=C/C=O |  | 39 | > 100 | 51.1 | 77.3 µM | 58.2 | 
CC1CC2C3CC(F)C4=CC(=O)C=CC4(C)C3(F)C(O)CC2(C)C1(O)C(=O)COC(=O)C(C)(C)C (stereo not given) | > 100 | > 100 | > 100 |  | > 100 µM | > 100 | 
COc1cc(CCc2cccnc2)cc(OC)c1OC | > 100 | > 100 | > 100 | > 100 | > 100 µM |  | 
Cc1cccc(C(=O)c2cccc3ccccc23)c1C(=O)O | > 100 | > 100 | > 100 | > 100 | > 100 µM | > 100 | 

Structure (SMILES) | TGI [1] [µM] | TGI [2] [µM] | TGI [3] [µM] | TGI [4] [µM] | TGI [5] | TGI [6] [µM] | also measured
COC(=O)Cc1cc(OC)c(OC)cc1Br | > 100 |  | > 100 | > 100 | > 100 µM |  | 
CC1=C(C(=O)NCc2ccccc2)C(c2ccc(C3C(C(=O)NCc4ccccc4)=C(C)NC(C)=C3C(=O)NCc3ccccc3)cc2)C(C(=O)NCc2ccccc2)=C(C)N1 | 13.1 | 31.7 | 29 | 15.5 | 27.1 µM | 31.1 | 
O=C1OC(=O)c2c1c(-c1ccccc1)cn2-c1ccc(Cl)cc1 | > 100 | > 100 | > 100 | > 100 | > 100 µM | > 100 | 
N#C/C(=C\c1ccccc1O)C(N)=O | > 100 | > 100 | > 100 | > 100 | > 100 µM | > 100 | 
CC1=CC2CC(C)=C(CC[C@]3(C)CC[C@H]([C@@H](C)C(=O)O)OO3)C(C)(C)C2CC1 (stereo not given in full) | 0.426 | 1.09 | 2.63 | 0.414 | 4.09 µM | 0.768 | 
[O-]/[N+](=C\c1ccccc1)[C@H](COCc1ccccc1)c1ccccc1 | > 100 | > 100 | > 100 | > 100 | > 100 µM | > 100 | 
N=C(c1ccccc1)N(c1ccccc1)c1ccccc1 | > 100 | > 100 | > 100 | > 100 | > 100 µM |  | 
CC1=CCC[C@@]2(C)C(CC[C@@H]2C(C)/C=C/C(C)C)c2ccc(cc2C(=O)O)C[C@@H](O)CC1 (stereo not given in full) | 14 | 34.2 |  | 23.9 | 34.5 µM |  | 
CCC1(C)NN=c2s/c(=C/c3ccc(OC)cc3)c(=O)n2N1 (stereo not given) | > 100 | > 100 | > 100 | > 100 | > 100 µM | > 100 | 
CCC(C)CN1C(=O)NC(C)(Cc2ccccc2)C1=O (stereo not given) | > 100 | > 100 | > 100 | > 100 | > 100 µM | > 100 | 
CC1[C@@H]2[C@@H](C=C3C4CCC5Cc6nc7c(nc6C[C@@]5(C)C4C[C@H](O)[C@]32CO)CC2CCC3C4=C[C@H]5O[C@@]6(O[C@@](C)(CO)C[C@@H]6O)C(C)[C@@]5(O)[C@]4(C)[C@@H](O)CC3[C@]2(C)C7)O[C@]12CCC(C)(C)O2 (stereo not given in full) | > 3.65 |  | 0.619 | 0.0713 | 0.34 µM and 0.642 µM |  | GI50 [1]: 0.583 µM; GI50 [2]: < 0.000365 µM; GI50 [3]: 0.00719 µM; GI50 [5]: < 0.000365 µM; GI50 [6]: < 0.000365 µM
O=C(Nc1c(O)[nH]c(=S)[nH]c1=O)c1ccccn1 | > 100 |  | > 100 | > 100 | > 100 µM |  | 
CC(=O)OCC1OC(Nc2[nH]c(=O)n(C)c(=O)c2-c2csc(N)n2)C(OC(C)=O)C(OC(C)=O)C1OC(C)=O (stereo not given) | > 100 |  | > 100 | > 100 | > 100 µM |  | 
CCN(CC)CCNC(=O)c1ccccc1NC(=O)C(=O)Nc1ccccc1C(=O)NCCN(CC)CC | > 100 | > 100 | > 100 |  | > 100 µM |  | 
O=C1c2ccccc2C2(O)Nc3cc(O)ccc3C12O (stereo not given) | > 100 | > 100 | > 100 | > 100 | > 100 µM |  | 
CCOc1ccc(NC(=O)CC2SC(=Nc3ccc(Cl)cc3)NC2=O)cc1 (stereo not given) | > 100 | > 100 | > 100 | > 100 |  | > 100 | 
C=CCC1OC(C)(C)Oc2ccc(OCOCCOC)cc21 (stereo not given) |  |  |  | > 100 |  |  | 
COc1cc2c(cc1O)C=NCC2 | > 100 | > 100 | > 100 | > 100 | > 100 µM | > 100 | 
C(=Nc1ccccc1)C1CCCC[N-]1.C(=Nc1ccccc1)C1CCCC[N-]1.[Cu+2].[O-][Cl+3]([O-])([O-])O (stereo not given) |  |  |  |  |  |  | GI50 [7]: 18.5 µM; TGI [7]: 55.8 µM; GI50 [8]: 8.48 µM; TGI [8]: 36.9 µM; GI50 [9]: 30.3 µM; TGI [9]: > 89.5 µM; GI50 [10]: 12.3 µM; TGI [10]: 34.2 µM
Cc1c2cc[nH]c(=O)c2c(C)c2c1[nH]c1cc(OCCN3CCN(C)CC3)ccc12 |  |  |  |  |  |  | GI50 [7]: 2.71 µM; TGI [7]: 11.4 µM; GI50 [8]: 0.813 µM; TGI [8]: 8.97 µM; GI50 [9]: 2.01 µM; TGI [9]: 9.23 µM; GI50 [10]: 1.03 µM; TGI [10]: 7.48 µM
